# Test results as given in patent US7812008B2, “9-substituted tetracyclines” (Wyeth LLC, priority 2005, dated 2010).
# Like-named read-outs stand apart in the source and are kept apart here.
# Columns and labels:
# E. coli GC1073 (tet(B)) = experiment: MIC broth microdilution, E. coli GC1073 (tet(B)); assay type: cell-based; details: MHBII, 18-22 hours at 35° C.
# Procedure: (§1) Methods for in Vitro Antibacterial Evaluation
# (§2) The minimum inhibitory concentration (MIC)
# (§3) Antimicrobial susceptibility testing. The in vitro activities of representative examples of antibiotics of the invention are determined by the broth microdilution method as recommended by the National Committee for Clinical Laboratory Standards (NCCLS) (1). Mueller-Hinton II broth (MHBII)(BBL Cockeysville, Md.) is the medium employed in the testing procedures. Microtiter plates containing serial dilutions of each antimicrobial agent are inoculated with each organism to yield the appropriate density (10^5 CFU/ml) in a 100 μl final volume. The plates are incubated for 18-22 hours at 35° C. in ambient air. […] NCCLS. 2000. Methods for Dilution Antimicrobial Susceptibility Tests for Bacteria That Grow Aerobically; Approved Standards: M7-A5, vol. 20. National Committe for Clinical Laboratory Standards, Wayne, Pa.
# [1] = system: S. aureus GC4536 (Smith MP -In Vivo); experiment: MIC broth microdilution, S. aureus GC4536 (Smith MP -In Vivo); assay type: cell-based; details: MHBII, 18-22 hours at 35° C.
# Procedure: as §1, §2, §3
# [2] = system: M. catarrhalis* GC6907 (Clinical); experiment: MIC broth microdilution, M. catarrhalis GC6907 (Clinical); assay type: cell-based; details: 18-22 hours at 35° C.
# Procedure: as §1, §2, §3
# E. coli GC2270 (tet(M)) = experiment: MIC broth microdilution, E. coli GC2270 (tet(M)); assay type: cell-based; details: MHBII, 18-22 hours at 35° C.
# Procedure: as §1, §2, §3
# [3] = system: S. aureus GC1079 (tet(K)); experiment: MIC broth microdilution, S. aureus GC1079 (tet(K)); assay type: cell-based; details: MHBII, 18-22 hours at 35° C.
# Procedure: as §1, §2, §3
# [4] = system: C. albicans GC3066 ATCC (Control); experiment: MIC broth microdilution, C. albicans GC3066 ATCC (Control); assay type: cell-based; details: 18-22 hours at 35° C.
# Procedure: as §1, §2, §3
# [5] = system: E. faecalis GC2267 (tet(L) + (M) + (S)); experiment: MIC broth microdilution, E. faecalis GC2267 (tet(L) + (M) + (S)); assay type: cell-based; details: MHBII, 18-22 hours at 35° C.
# Procedure: as §1, §2, §3
# [6] = system: Staphylococcal aureus Smith M P; experiment: MIC reported in Table 2 beside the in vivo ED50; assay type: cell-based; details: Staphylococcus aureus, infecting strain S. aureus Smith MP
# Procedure: Antimicrobial susceptibility testing. The in vitro activities of representative examples of antibiotics of the invention are determined by the broth microdilution method as recommended by the National Committee for Clinical Laboratory Standards (NCCLS) (1). Mueller-Hinton II broth (MHBII)(BBL Cockeysville, Md.) is the medium employed in the testing procedures. Microtiter plates containing serial dilutions of each antimicrobial agent are inoculated with each organism to yield the appropriate density (10^5 CFU/ml) in a 100 μl final volume. The plates are incubated for 18-22 hours at 35° C. in ambient air. […] NCCLS. 2000. Methods for Dilution Antimicrobial Susceptibility Tests for Bacteria That Grow Aerobically; Approved Standards: M7-A5, vol. 20. National Committe for Clinical Laboratory Standards, Wayne, Pa. In Vivo Antibacterial Evaluation: The therapeutic effects of representative examples of the invention are determined against acute lethal infection with Staphylococcal aureus Smith M P, Female mice, strain CD-1 (Charles River Laboratoties), ca. 20 grams, are challenged by an intraperitoneal injection of sufficient bacteria (suspended in broth or hog mucin) to kill non-treated controls within 24-28 hours. Antibacterial agents, contained in 0.5 ml of 0.2% aqueous agar, are administered subcutaneously or orally 30 minutes after injection. When an oral dosing schedule is used, animal are deprived of food for 5 hours before and 2 hours after injection. Five mice are treated at each dose level. The 7 day survival ratios from 3 separate tests are pooled for calculation of median effective dose (ED50).
# [7] = system: S. aureus GC6466 (tet(M)); experiment: MIC broth microdilution, S. aureus GC6466 (tet(M)); assay type: cell-based; details: MHBII, 18-22 hours at 35° C.
# Procedure: as §1, §2, §3
# [8] = system: S. pneumoniae* GC4465 (Clinical); experiment: MIC broth microdilution, S. pneumoniae GC4465 (Clinical); assay type: cell-based; details: 18-22 hours at 35° C.
# Procedure: as §1, §2, §3
# [9] = system: S. aureus GC1131 (Clinical); experiment: MIC broth microdilution, S. aureus GC1131 (Clinical); assay type: cell-based; details: MHBII, 18-22 hours at 35° C.
# Procedure: as §1, §2, §3
# [10] = system: E. faecalis GC2242 (Van-resistant); experiment: MIC broth microdilution, E. faecalis GC2242 (Van-resistant); assay type: cell-based; details: MHBII, 18-22 hours at 35° C.
# Procedure: as §1, §2, §3
# [11] = system: E. coli GC4560 (IMP mutant); experiment: MIC broth microdilution, E. coli GC4560 (IMP mutant); assay type: cell-based; details: MHBII, 18-22 hours at 35° C.
# Procedure: as §1, §2, §3
# [12] = system: Staphylococcal aureus Smith M P; experiment: In vivo antibacterial evaluation, acute lethal infection in mice; details: Mus musculus; single oral dose 30 minutes after intraperitoneal challenge; female CD-1 mice; 7 day survival ratios, 3 tests pooled; read-out: SOD* ED50
# Procedure: In Vivo Antibacterial Evaluation: The therapeutic effects of representative examples of the invention are determined against acute lethal infection with Staphylococcal aureus Smith M P, Female mice, strain CD-1 (Charles River Laboratoties), ca. 20 grams, are challenged by an intraperitoneal injection of sufficient bacteria (suspended in broth or hog mucin) to kill non-treated controls within 24-28 hours. Antibacterial agents, contained in 0.5 ml of 0.2% aqueous agar, are administered subcutaneously or orally 30 minutes after injection. When an oral dosing schedule is used, animal are deprived of food for 5 hours before and 2 hours after injection. Five mice are treated at each dose level. The 7 day survival ratios from 3 separate tests are pooled for calculation of median effective dose (ED50).
# [13] = system: E. coli GC4559 (parent GC4560); experiment: MIC broth microdilution, E. coli GC4559 (parent GC4560); assay type: cell-based; details: MHBII, 18-22 hours at 35° C.
# Procedure: as §1, §2, §3
# [14] = system: Staphylococcal aureus Smith M P; experiment: In vivo antibacterial evaluation, acute lethal infection in mice; details: Mus musculus, iv, 168 h; single intraveneous dose; female CD-1 mice; 7 day survival ratios, 3 tests pooled; read-out: SIV* ED50
# [15] = system: E. faecalis GC4555 (ATCC Control); experiment: MIC broth microdilution, E. faecalis GC4555 (ATCC Control); assay type: cell-based; details: MHBII, 18-22 hours at 35° C.
# Procedure: as §1, §2, §3
# [16] = system: H. influenzae<> GC6896 (ATCC Control); experiment: MIC broth microdilution, H. influenzae GC6896 (ATCC Control); assay type: cell-based; details: 18-22 hours at 35° C.
# Procedure: as §1, §2, §3
# [17] = system: S. pneumoniae* GC1894 (Clinical); experiment: MIC broth microdilution, S. pneumoniae GC1894 (Clinical); assay type: cell-based; details: 18-22 hours at 35° C.
# Procedure: as §1, §2, §3
# [18] = system: S. aureus GC2216 (ATCC Control); experiment: MIC broth microdilution, S. aureus GC2216 (ATCC Control); assay type: cell-based; details: MHBII, 18-22 hours at 35° C.
# Procedure: as §1, §2, §3
# [19] = system: S. pyogenes* GC4563 (Clinical); experiment: MIC broth microdilution, S. pyogenes GC4563 (Clinical); assay type: cell-based; details: 18-22 hours at 35° C.
# Procedure: as §1, §2, §3
# [20] = system: S. aureus GC6467 (tet(M) + (K)); experiment: MIC broth microdilution, S. aureus GC6467 (tet(M) + (K)); assay type: cell-based; details: MHBII, 18-22 hours at 35° C.
# Procedure: as §1, §2, §3
# [21] = system: E. coli GC2203 (ATCC Control); experiment: MIC broth microdilution, E. coli GC2203 (ATCC Control); assay type: cell-based; details: MHBII, 18-22 hours at 35° C.
# Procedure: as §1, §2, §3
SMILES,minimum inhibitory concentration (MIC) (E. coli GC1073 (tet(B))),minimum inhibitory concentration (MIC) [1],minimum inhibitory concentration (MIC) [2],minimum inhibitory concentration (MIC) (E. coli GC2270 (tet(M))),minimum inhibitory concentration (MIC) [3],minimum inhibitory concentration (MIC) [4],minimum inhibitory concentration (MIC) [5],MIC [6] [µg/mL],minimum inhibitory concentration (MIC) [7],minimum inhibitory concentration (MIC) [8],minimum inhibitory concentration (MIC) [9],minimum inhibitory concentration (MIC) [10],minimum inhibitory concentration (MIC) [11],ED50 [12] [mg/kg],minimum inhibitory concentration (MIC) [13],ED50 [14] [mg/kg],minimum inhibitory concentration (MIC) [15],minimum inhibitory concentration (MIC) [16],minimum inhibitory concentration (MIC) [17],minimum inhibitory concentration (MIC) [18],also measured
"CONCC(=O)Nc1cc(N(C)C)c2c(c1O)C(=O)C1=C(O)[C@]3(O)C(=O)C(C(N)=O)=C(O)[C@@H](N(C)C)[C@@H]3C[C@@H]1C2 [Example 5, (4S,4aS,5aR,12aS)-4,7-bis(dimethylamino)-3,10,12,12a-tetrahydroxy-9-[(N-methoxyglycyl)amino]-1,11-dioxo-1,4,4a,5,5a,6,11,12a-octahydrotetracene-2-carboxamide]",4,1,0.25,4,2,>64,4,1,1,0.12,1,2,0.25,16 to 32,4,0.5 to 1,1,2,0.25,1,minimum inhibitory concentration (MIC) [19]: 0.25; minimum inhibitory concentration (MIC) [20]: 4; minimum inhibitory concentration (MIC) [21]: 2
"CN(C)c1cc(NC(=O)CN(O)C(C)(C)C)c(O)c2c1C[C@H]1C[C@H]3[C@H](N(C)C)C(O)=C(C(N)=O)C(=O)[C@@]3(O)C(O)=C1C2=O [Example 3, (4S,4aS,5aR,12aS)-9-{[N-(tert-butyl)-N-hydroxyglycyl]amino}-4,7-bis(dimethylamino)-3,10,12,12a-tetrahydroxy-1,11-dioxo-1,4,4a,5,5a,6,11,12a-octahydrotetracene-2-carboxamide]",>64,4,2,>64,8,>64,8,1,4,1,4,8,1,> 32,>64,2 to 4,4,8,1,4,minimum inhibitory concentration (MIC) [19]: 0.50; minimum inhibitory concentration (MIC) [20]: 16; minimum inhibitory concentration (MIC) [21]: 32
"CON(C)CC(=O)Nc1cc(N(C)C)c2c(c1O)C(=O)C1=C(O)[C@]3(O)C(=O)C(C(N)=O)=C(O)[C@@H](N(C)C)[C@@H]3C[C@@H]1C2 [Example 7, (4S,4aS,5aR,12aS)-4,7-bis(dimethylamino)-3,10,12,12a-tetrahydroxy-9-[(N-methoxy-N-methylglycyl)amino]-1,11-dioxo-1,4,4a,5,5a,6,11,12a-octahydrotetracene-2-carboxamide]",>64,2,0.50,>64,32,>64,8,2,2,0.50,4,2,1,16 to 32,>64,0.5 to 2,1,4,0.50,2,minimum inhibitory concentration (MIC) [19]: 0.25; minimum inhibitory concentration (MIC) [20]: >64; minimum inhibitory concentration (MIC) [21]: >64
